Results published in patent publication US20070130640A1, “Methods of modulating auxin production in plants” (priority 2005, published 2007).
Read-outs that look alike come from different tables or passages of the source.

What was measured:
[1] = target: T1, NIT2 (Arabidopsis thaliana, UniProt P32962); conditions: cited from earlier work
T1 sequence (P32962 1-339): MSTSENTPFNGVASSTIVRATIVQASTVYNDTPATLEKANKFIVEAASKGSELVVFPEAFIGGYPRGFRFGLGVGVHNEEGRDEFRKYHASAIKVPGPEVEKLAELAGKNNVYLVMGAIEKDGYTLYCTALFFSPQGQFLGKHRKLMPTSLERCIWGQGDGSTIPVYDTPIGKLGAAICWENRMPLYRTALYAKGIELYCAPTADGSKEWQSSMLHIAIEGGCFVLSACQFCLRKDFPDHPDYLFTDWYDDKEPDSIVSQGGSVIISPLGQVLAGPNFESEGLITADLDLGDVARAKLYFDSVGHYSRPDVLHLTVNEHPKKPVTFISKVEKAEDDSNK

[2] = tested on: Arabidopsis seedlings; assay: Seedling growth on media supplemented with IAN (auxin phenotype); assay type: in vivo
Text: Four nitrilases, differentially expressed during development and in response to environmental cues, catalyze hydrolysis of IAN to IAA in Arabidopsis (Bartel and Fink (1994) Proc. Natl. Acad. Sci. USA 91:6649-6653). The nitl mutant is insensitive to the auxin effects of exogenously applied IAN at the seedling stage (Normanly et al. (1997) Plant Cell 9:1781-1790). In accordance with the observed insensitivity of nit1 seedlings to IAN, NIT1 is most strongly expressed in the hypocotyl near the junction with the root in young seedlings as well as in the cotyledons. In contrast, NIT2 and NIT3 are expressed primarily in the cotyledons and NIT4 is expressed in the root tip (Bartel and Fink (1994) Proc. Natl. Acad. Sci. USA 91:6649-6653).

[3] = target: T2, NIT1 (Arabidopsis thaliana, UniProt P32961); conditions: cited from earlier work
T2 sequence (P32961 1-346): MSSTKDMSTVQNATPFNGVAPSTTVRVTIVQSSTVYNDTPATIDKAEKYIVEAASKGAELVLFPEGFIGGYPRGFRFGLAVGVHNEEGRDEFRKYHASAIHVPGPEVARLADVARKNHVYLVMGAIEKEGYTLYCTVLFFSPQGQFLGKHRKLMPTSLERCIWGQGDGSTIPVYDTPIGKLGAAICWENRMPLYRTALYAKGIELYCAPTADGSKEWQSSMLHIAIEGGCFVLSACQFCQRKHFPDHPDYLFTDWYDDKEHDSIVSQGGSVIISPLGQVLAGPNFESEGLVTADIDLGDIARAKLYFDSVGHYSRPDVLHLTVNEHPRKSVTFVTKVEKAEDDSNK

[4] = target: T3, CYP83B1 (Arabidopsis thaliana, UniProt O65782); assay: Spectral analysis (optical difference spectroscopy) of ligand binding to heterologously expressed CYP83B1 in yeast microsomes
T3 sequence (O65782 1-499): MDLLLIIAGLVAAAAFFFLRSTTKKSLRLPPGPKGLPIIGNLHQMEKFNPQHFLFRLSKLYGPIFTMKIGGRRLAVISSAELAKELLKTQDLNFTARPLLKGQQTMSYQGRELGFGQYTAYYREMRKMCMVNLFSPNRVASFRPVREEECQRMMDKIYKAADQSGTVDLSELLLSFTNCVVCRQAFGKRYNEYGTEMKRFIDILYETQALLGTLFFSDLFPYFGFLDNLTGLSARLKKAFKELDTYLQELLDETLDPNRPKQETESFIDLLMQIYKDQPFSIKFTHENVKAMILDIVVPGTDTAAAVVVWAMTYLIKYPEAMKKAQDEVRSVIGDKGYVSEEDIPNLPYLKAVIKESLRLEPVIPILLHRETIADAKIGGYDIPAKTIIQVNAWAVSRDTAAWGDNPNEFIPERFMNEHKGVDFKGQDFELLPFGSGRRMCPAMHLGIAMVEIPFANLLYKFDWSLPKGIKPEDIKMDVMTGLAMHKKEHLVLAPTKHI
Procedure: (§1) FIG. 3. (A) Analysis of CYP83B1 by optical difference spectroscopy. […] After incubation for 10 min at 28° C., reaction mixtures were extracted with ethylacetate and analyzed by TLC. (s) substrate, (p) product.

[5] = target: T3, CYP83B1; assay: CYP83B1 catalysis of [5-3H]indole-3-acetaldoxime metabolism (Km, Vmax, inhibition; TLC / scintillation counting)
Procedure: as §1
After incubation, reaction mixtures were stopped by adding SDS to 0.4% and were analyzed by thin layer chromatography (TLC). TLC plates were developed in chloroform/methanol/water (85:14:1) and radioactive bands visualized by autoradiography.
Reactions were stopped and extracted with ethylacetate. Aliquots of the substrate-containing ethylacetate phase and product-containing water phase were subjected to liquid scintillation counting.

[6] = tested on: wild type seedlings; assay: Indole glucosinolate levels in seedlings grown on MS agar, quantified colorimetrically as SCN; assay type: in vivo, Arabidopsis; conditions: wild type seedlings germinated on MS media with 100 μM tryptamine; two week old; n=10
Procedure: FIG. 6. Indole glucosinolate levels are affected by CYP83B1 expression. Indole glucosinolates in individual two week old seedlings grown on MS agar were quantified calorimetrically as SCN. 1) Wild type, 2) rnt1-1, 3) molecularly complemented line 3.25.11, 4) overexpression line 1.4.7, and 5) wild type grown on 100 μM tryptamine. Data are represented as the mean ±S.E, (n=10 seedlings). Except for the molecularly complemented line 3.25.11, mean indole glucosinolate values all differ from wild type seedling values at a 1% confidence value (t-test).
Tryptophan-derived indole-3-acetaldoxime is also an intermediate in the biosynthesis of indole glucosinolates.

[7] = substrate: ON=CCc1c[nH]c2ccccc12; assay: purified protein, by the assay type; conditions: other: in the presence of cysteine, 2.2 nM CYP83B1, 1 min at 28 °C, estimated, pH 7.6

N#CCc1c[nH]c2ccccc12 [IAN, indole-3-acetonitrile]
Km for IAN hydrolysis [1]: in the mM range | effect on rnt1-1 seedlings (germination) ([2]; rnt1-1 seedlings grown on 50 μM IAN): almost completely inhibiting germination | phenotype of wild type seedlings ([2]; wild type Arabidopsis seedlings on media with 50 μM IAN): phenocopy rnt1-1 seedlings | Km for IAN hydrolysis [3]: in the mM range

ON=CCc1c[nH]c2ccccc12 [indole-3-acetaldoxime]
type of binding spectrum caused [4]: weak reverse type I spectrum | turnover (number) ([5]; in the presence of cysteine, 2.2 nM CYP83B1, 1 min at 28 °C): 53 min⁻¹

NCCc1c[nH]c2ccccc12 [tryptamine]
indole glucosinolate levels compared to wild type seedlings [6]: reduced levels | type of binding spectrum caused ([4]; yeast microsomes containing CYP83B1): typical type IIa binding spectrum | inhibition of CYP83B1 catalysis (indole-3-acetaldoxime oxidation) ([5]; 22 nM CYP83B1, 35 μM [5-3H]indole-3-acetaldoxime, 17.5 mM tryptamine, 10 min at 28 °C, TLC (FIG. 3B)): inhibitor

B1: CYP83B1 (Arabidopsis thaliana) (protein)
chain: MDLLLIIAGLVAAAAFFFLRSTTKKSLRLPPGPKGLPIIGNLHQMEKFNPQHFLFRLSKLYGPIFTMKIGGRRLAVISSAELAKELLKTQDLNFTARPLLKGQQTMSYQGRELGFGQYTAYYREMRKMCMVNLFSPNRVASFRPVREEECQRMMDKIYKAADQSGTVDLSELLLSFTNCVVCRQAFGKRYNEYGTEMKRFIDILYETQALLGTLFFSDLFPYFGFLDNLTGLSARLKKAFKELDTYLQELLDETLDPNRPKQETESFIDLLMQIYKDQPFSIKFTHENVKAMILDIVVPGTDTAAAVVVWAMTYLIKYPEAMKKAQDEVRSVIGDKGYVSEEDIPNLPYLKAVIKESLRLEPVIPILLHRETIADAKIGGYDIPAKTIIQVNAWAVSRDTAAWGDNPNEFIPERFMNEHKGVDFKGQDFELLPFGSGRRMCPAMHLGIAMVEIPFANLLYKFDWSLPKGIKPEDIKMDVMTGLAMHKKEHLVLAPTKHI
Km [7]: 3 µM
